Laboratory results: US9738604B2, “Ethynylbenzene derivatives” (Duke University, priority 2010, dated 2017)
Where two headings read alike, the source gives them in different places.

How the values were obtained:
Format in all cases: cell-based
E. coli W3110RL = test: microbe, parasite or virus in culture; conditions: E. coli with lpxC of R. leguminosarum; 22 hours at 37° C., MTT
P. aeruginosa (PAO1) = test: MIC, P. aeruginosa; conditions: P. aeruginosa PAO1; 22 hours at 37° C., MTT
E. coli W3110PA = test: microbe, parasite or virus in culture; conditions: E. coli with lpxC of P. aeruginosa; 22 hours at 37° C., MTT
E. coli W3110 = test: microbe, parasite or virus in culture

Structure (SMILES)	MIC E. coli W3110RL (E. coli W3110RL)	MIC P. aeruginosa (PAO1) (P. aeruginosa (PAO1))	MIC E. coli W3110PA (E. coli W3110PA)	MIC E. coli W3110 (E. coli W3110)	MIC E. coli W3110 (E. coli W3110; wild-type E. coli W3110, 22 hours at 37° C., MTT)
CC(C)(C)OC(=O)CC[C@H](NC(=O)c1ccc(C#CC#Cc2ccc(N)cc2)cc1)C(=O)NO [CPD-017, Tert-butyl (4S)-4-({4′-[4′-(4′-aminophenyl)buta-1′,3′-diyn-1′-yl]phenyl}formamido)-4-(hydroxycarbamoyl)butanoate]	E (>100 μg/mL)	E (>100 μg/mL)	E (>100 μg/mL)	C (key: A: <1 μg/mL; B: 1-10 μg/mL; C: 11-50 μg/mL; D: 51-100 μg/mL; E: >100 μg/mL)	
Nc1ccc(C#CC#Cc2ccc(C(=O)N[C@@H](CCC(=O)O)C(=O)NO)cc2)cc1 [CPD-018, (4S)-4-({4′-[4′-(4′-aminophenyl)buta-1′,3′-diyn-1′-yl]phenyl}formamido)-4-(hydroxycarbamoyl)butanoic acid]	E (>100 μg/mL)	C (11-50 μg/mL)	D (51-100 μg/mL)		B (1-10 μg/mL)
Nc1ccc(C#CC#Cc2ccc(C(=O)N[C@@H](CC(=O)O)C(=O)NO)cc2)cc1 [CPD-019, (3S)-3-({4′-[4′-(4′-aminophenyl)buta-1′,3′-diyn-1′-yl]phenyl}formamido)-3-(hydroxycarbamoyl)propane acid]	E (>100 μg/mL)	E (>100 μg/mL)	E (>100 μg/mL)	D (key: A: <1 μg/mL; B: 1-10 μg/mL; C: 11-50 μg/mL; D: 51-100 μg/mL; E: >100 μg/mL)	
C[C@H](NC(=O)c1ccc(C#CC#Cc2ccc(N)cc2)cc1)C(=O)NO [CPD-020, (2S)-2-({4′-[4′-(4′-aminophenyl)buta-1′,3′-diyn-1′-yl]phenyl}formamido)-N-hydroxypropanamide]	B (1-10 μg/mL)	C (11-50 μg/mL)	B (1-10 μg/mL)	A (key: A: <1 μg/mL; B: 1-10 μg/mL; C: 11-50 μg/mL; D: 51-100 μg/mL; E: >100 μg/mL)	
NC[C@H](NC(=O)c1ccc(C#CC#Cc2ccc(N)cc2)cc1)C(=O)NO [CPD-021, (2S)-3-amino-2-({4′-[4′-(4′-aminophenyl)buta-1′,3′-diyn-1-yl]phenyl}formamido)-N-hydroxypropanamide]	E (>100 μg/mL)	B (1-10 μg/mL)	C (11-50 μg/mL)	B (key: A: <1 μg/mL; B: 1-10 μg/mL; C: 11-50 μg/mL; D: 51-100 μg/mL; E: >100 μg/mL)	
CC(C)[C@H](NC(=O)c1ccc(C#CC#Cc2ccc(N)cc2)cc1)C(=O)NO [CPD-022, (2S)-2-({4′-[4′-(4′-aminophenyl)buta-1′,3′-diyn-1′-yl]phenyl}formamido)-N-hydroxy-3-methylbutanamide]	D (51-100 μg/mL)	B (1-10 μg/mL)	A (<1 μg/mL)	A (key: A: <1 μg/mL; B: 1-10 μg/mL; C: 11-50 μg/mL; D: 51-100 μg/mL; E: >100 μg/mL)	
CC[C@@H](C)[C@H](NC(=O)c1ccc(C#CC#Cc2ccc(N)cc2)cc1)C(=O)NO [CPD-023, (2S,3R)-2-({4′-[4′-(4′-aminophenyl)buta-1′,3′-diyn-1-yl]phenyl}formamido)-N-hydroxy-3-methylpentanamide]	C (11-50 μg/mL)	D (51-100 μg/mL)	B (1-10 μg/mL)	A (key: A: <1 μg/mL; B: 1-10 μg/mL; C: 11-50 μg/mL; D: 51-100 μg/mL; E: >100 μg/mL)	
Nc1ccc(C#CC#Cc2ccc(C(=O)NCC(=O)NO)cc2)cc1 [CPD-024, 2-({4′-[4′-(4′-aminophenyl)buta-1′,3′-diyn-1′-yl]phenyl}formamido)-N-hydroxyacetamide]	E (>100 μg/mL)	D (51-100 μg/mL)	C (11-50 μg/mL)	A (key: A: <1 μg/mL; B: 1-10 μg/mL; C: 11-50 μg/mL; D: 51-100 μg/mL; E: >100 μg/mL)	
Nc1ccc(C#CC#Cc2ccc(C(=O)N[C@@H](Cc3ccccc3)C(=O)NO)cc2)cc1 [CPD-025, (2S)-2-({4′-[4′-(4′-aminophenyl)buta-1′,3′-diyn-1′-yl]phenyl}formamido)-N-hydroxy-3-phenylpropanamide]	E (>100 μg/mL)	D (51-100 μg/mL)	E (>100 μg/mL)	B (key: A: <1 μg/mL; B: 1-10 μg/mL; C: 11-50 μg/mL; D: 51-100 μg/mL; E: >100 μg/mL)	
CC(C)C[C@H](NC(=O)c1ccc(C#CC#Cc2ccc(N)cc2)cc1)C(=O)NO [CPD-026, (2S)-2-({4′-[4′-(4′-aminophenyl)buta-1′,3′-diyn-1-yl]phenyl}formamido)-N-hydroxy-4-methylpentanamide]	E (>100 μg/mL)	E (>100 μg/mL)	E (>100 μg/mL)	B (key: A: <1 μg/mL; B: 1-10 μg/mL; C: 11-50 μg/mL; D: 51-100 μg/mL; E: >100 μg/mL)	
Nc1ccc(C#CC#Cc2ccc(C(=O)N[C@@H](CO)C(=O)NO)cc2)cc1 [CPD-027, (2S)-2-({4′-[4′-(4′-aminophenyl)buta-1′,3′-diyn-1′-yl]phenyl}formamido)-N,3-dihydroxypropanamide]	C (11-50 μg/mL)	B (1-10 μg/mL)	B (1-10 μg/mL)	A (key: A: <1 μg/mL; B: 1-10 μg/mL; C: 11-50 μg/mL; D: 51-100 μg/mL; E: >100 μg/mL)	
CSCC[C@H](NC(=O)c1ccc(C#CC#Cc2ccc(N)cc2)cc1)C(=O)NO [CPD-028, (2S)-2-({4′-(4′-(4′-aminophenyl)buta-1′,3′-diyn-1-yl]phenyl}formamido)-N-hydroxy-4-(methylsulfanyl)butanamide]	E (>100 μg/mL)	E (>100 μg/mL)	E (>100 μg/mL)	A (key: A: <1 μg/mL; B: 1-10 μg/mL; C: 11-50 μg/mL; D: 51-100 μg/mL; E: >100 μg/mL)	
Nc1ccc(C#CC#Cc2ccc(C(=O)N[C@@H](Cc3c[nH]c4ccccc34)C(=O)NO)cc2)cc1 [CPD-029, (2S)-2-({4′-[4′-(4′-aminophenyl)buta-1′,3′-diyn-1′-yl]phenyl}formamido)-N-hydroxy-3-(1′H-indol-3′-yl)propanamide]	E (>100 μg/mL)	E (>100 μg/mL)	E (>100 μg/mL)	B (key: A: <1 μg/mL; B: 1-10 μg/mL; C: 11-50 μg/mL; D: 51-100 μg/mL; E: >100 μg/mL)	
Nc1ccc(C#CC#Cc2ccc(C(=O)N3CCC[C@H]3C(=O)NO)cc2)cc1 [CPD-031, (2S)-1-({4′-[4′-(4′-aminophenyl)buta-1′,3′-diyn-1-yl]phenyl}carbonyl)-N-hydroxypyrrolidine-2-carboxamide]	E (>100 μg/mL)	E (>100 μg/mL)	E (>100 μg/mL)	C (key: A: <1 μg/mL; B: 1-10 μg/mL; C: 11-50 μg/mL; D: 51-100 μg/mL; E: >100 μg/mL)	
NCCCC[C@H](NC(=O)c1ccc(C#CC#Cc2ccc(N)cc2)cc1)C(=O)NO [CPD-032, (2S)-6-amino-2-({4′-[4′-(4′-aminophenyl)buta-1′,3′-diyn-1-yl]phenyl}formamido)-N-hydroxyhexanamide]	D (51-100 μg/mL)	C (11-50 μg/mL)	C (11-50 μg/mL)	C (key: A: <1 μg/mL; B: 1-10 μg/mL; C: 11-50 μg/mL; D: 51-100 μg/mL; E: >100 μg/mL)	
Nc1ccc(C#CC#Cc2ccc(C(=O)N[C@@H](Cc3ccc(O)cc3)C(=O)NO)cc2)cc1 [CPD-033, (2S)-2-({4′-[4′-(4′-aminophenyl)buta-1′,3′-diyn-1′-yl]phenyl}formamido)-N-hydroxy-3′-(4′-hydroxyphenyl)propanamide]	E (>100 μg/mL)	C (11-50 μg/mL)	B (1-10 μg/mL)	B (key: A: <1 μg/mL; B: 1-10 μg/mL; C: 11-50 μg/mL; D: 51-100 μg/mL; E: >100 μg/mL)	
N=C(N)NCCC[C@H](NC(=O)c1ccc(C#CC#Cc2ccc(N)cc2)cc1)C(=O)NO [CPD-034, (2S)-2-({4′-[4′-(4′-aminophenyl)buta-1′,3′-diyn-1-yl]phenyl}formamido)-5′-carbamimidamido-N-hydroxypentanamide]	D (51-100 μg/mL)	C (11-50 μg/mL)	D (51-100 μg/mL)	C (key: A: <1 μg/mL; B: 1-10 μg/mL; C: 11-50 μg/mL; D: 51-100 μg/mL; E: >100 μg/mL)	
C[C@@H](O)[C@H](NC(=O)c1ccc(C#CC#Cc2ccc(N)nc2)cc1)C(=O)NO [CPD-035, (2S,3R)-2-{4′-[[(2″-amino)pyridin-5″-yl]buta-1′,3′-diynyl]benzamido}-1,3-dihydroxybutanamide]	C (11-50 μg/mL)	A (<1 μg/mL)	B (1-10 μg/mL)	A (key: A: <1 μg/mL; B: 1-10 μg/mL; C: 11-50 μg/mL; D: 51-100 μg/mL; E: >100 μg/mL)	
C[C@@H](O)[C@H](NC(=O)c1ccc(C#CC#Cc2cnc(N)nc2)cc1)C(=O)NO [CPD-036, (2S,3R)-2-{4′-[[(2″-amino)pyrimidin-5″-yl]buta-1′,3′-diynyl]benzamido}-1,3-dihydroxybutanamide]	E (>100 μg/mL)	A (<1 μg/mL)	B (1-10 μg/mL)	B (key: A: <1 μg/mL; B: 1-10 μg/mL; C: 11-50 μg/mL; D: 51-100 μg/mL; E: >100 μg/mL)	
C[C@@H](O)[C@H](NC(=O)c1ccc(C#CC#Cc2cccnc2)cc1)C(=O)NO [CPD-038, (2S,3R)-2-{4′-[(pyridin-3″-yl]buta-1′,3′-diynyl]benzamido}-1,3-dihydroxybutanamide]	D (51-100 μg/mL)	A (<1 μg/mL)	B (1-10 μg/mL)	A (key: A: <1 μg/mL; B: 1-10 μg/mL; C: 11-50 μg/mL; D: 51-100 μg/mL; E: >100 μg/mL)	
